This passage reports inhibition results from patent US10174038B2, “Compounds and methods for antiviral treatment” (Gilead Sciences, Inc., priority 2012, dated 2019).

The assay deals with RSV strain A2. As to the kind of experiment: RSV antiviral activity, in vitro cytoprotection assay in Hep2 cells. The format is cell-based, Respiratory Syncytial Virus (RSV). The conditions noted are these: human respiratory syncytial virus, HEp-2; 0.5 μM compound; RSV-induced cytopathic effect in Hep2 cells; % inhibition calculated from fitted 4-parameter dose response curve, normalized to 0% and 100%; read-out: Percent inhibition at 0.5 μM. As to the method: Antiviral activity against RSV was determined using an in vitro cytoprotection assay in Hep2 cells. […] The method used was similar to methods previously described in published literature (Chapman et al., Antimicrob Agents Chemother. 2007, 51(9):3346-53.)
Hep2 cells were obtained from ATCC (Manassas, Va.) and maintained in MEM media supplemented with 10% fetal bovine serum and penicillin/streptomycin. Cells were passaged twice a week and kept at subconfluent stage. Commercial stock of RSV strain A2 (Advanced Biotechnologies, Columbia, Md.) was titered before compound testing to determine the appropriate dilution of the virus stock that generated desirable cytopathic effect in Hep2 cells.
For antiviral tests, Hep2 cells were seeded into 96-well plates 24 hours before the assay at a density of 3,000 cells/well. On a separate 96 well plate, compounds to be tested were serially diluted in cell culture media. Eight concentrations in 3-fold serial dilution increments were prepared for each tested compound and 100 uL/well of each dilution was transferred in duplicate onto plates with seeded Hep2 cells. Subsequently, appropriate dilution of virus stock previously determined by titration was prepared in cell culture media and 100 uL/well was added to test plates containing cells and serially diluted compounds. Each plate included three wells of infected untreated cells and three wells of uninfected cells that served as 0% and 100% virus inhibition control, respectively. Following the infection with RSV, testing plates were incubated for 4 days in a tissue culture incubator. After the incubation, RSV-induced cytopathic effect was determined using a Cell TiterGlo reagent (Promega, Madison, Wis.) followed by a luminescence read-out. The percentage inhibition was calculated for each tested concentration relative to the 0% and 100% inhibition controls and the EC50 value for each compound was determined by non-linear regression as a concentration inhibiting the RSV-induced cytopathic effect by 50%. Ribavirin (purchased from Sigma, St. Louis, Mo.) was used as a positive control for antiviral activity.
Compounds were also tested for antiviral activity against RSV in Hep2 cells using a 384 well format. Compounds were diluted in DMSO using a 10-step serial dilution in 3-fold increments via automation in 4 adjacent replicates each. Eight compounds were tested per dilution plate. 0.4 uL of diluted compounds were then stamped via Biomek into 384-well plates (Nunc 142761 or 164730 w/lid 264616) containing 20 μL of media (Mediatech Inc. MEM supplemented with Glutamine, 10% FBS and Pen/Strep). DMSO and a suitable positive control compound, such as 80 μM GS-329467 or 10 μM 427346 was used for the 100% and 0% cell killing controls, respectively.
Hep2 cells (1.0×10^5 cells/ml) were prepared as above in batch to at least 40 mls excess of the number of sample plates (8 mls cell mix per plate) and infected with vendor supplied (ABI) RSV strain A2 to arrive at an MOI of 1:1000 (virus:cell #) or 1:3000 (vol virus:cell vol). Immediately after addition of virus, the RSV infected Hep2 cell suspension was added to each stamped 384-well plate at 20 μl per well using a uFlow dispenser, giving a final volume of 40 μL/well, each with 2000 infected cells. The plates were then incubated for 5 days at 37° C. and 5% CO2. Following incubation, the plates were equilibrated to room temperature in a biosafety cabinet hood for 1.5 hrs and 40 μL of Cell-Titer Glo viability reagent (Promega) was added to each well via uFlow. Following a 10-20 minute incubation, the plates were read using an EnVision or Victor Luminescence plate reader (Perkin-Elmer). The data was then uploaded and analyzed on the Bioinformatics portal under the RSV Cell Infectivity and 8-plate EC50-Hep2-384 or 8-plate EC50-Hep2-Envision protocols. […]

The term inhibition denotes how much of the control response was suppressed. In the case of `Cc1ccc(NS(C)(=O)=O)c(C(=O)N2CCCC[C@H]2c2cc3nc(C)cc(C)n3n2)c1` [Compound 52], the inhibition at 0.5 µM was 99%.

On to `CNc1cc(N2CCOCC2)n2nc([C@@H]3CCCCN3C(=O)c3cc(Cl)ccc3NS(C)(=O)=O)cc2n1` [Compound 91], for which the inhibition at 0.5 µM is 91%.

Take `Cc1cn2nc([C@@H]3CCCCN3C(=O)c3cccc(C(F)(F)F)n3)cc2nc1N1CC[C@H](N)C1` [Compound 67]: the inhibition at 0.5 µM is 99%.

With `Cc1cc(C2CC2)nc2cc([C@@H]3CCCCN3C(=O)c3cc(Cl)cc(F)c3NS(C)(=O)=O)nn12` [Compound 29], the inhibition at 0.5 µM is 90%.

On to `COC(=O)C1CCN1c1nc2cc([C@@H]3CCCCN3C(=O)c3cc(Cl)ccc3NS(C)(=O)=O)nn2cc1C` (some centres unmarked) [Compound 99], for which the inhibition at 0.5 µM is 100%.

Turning to `Cc1ccc(NS(C)(=O)=O)c(C(=O)N2CCCC[C@H]2c2nc3cc(C)cc(C)n3n2)c1` [Compound 110], the inhibition at 0.5 µM was 60%.

As to `CC(=O)Nc1ccc(C)cc1C(=O)N1CCCC[C@H]1c1cc2nc(N3CCC[C@H](N)C3)c(C)cn2n1` [Compound 86], the inhibition at 0.5 µM was 84%.

With `CS(=O)(=O)Nc1ccc(Cl)cc1C(=O)N1CCCC[C@H]1c1cc2nc(N3CC[C@H](O)C3)cc(N3CCOCC3)n2n1` [Compound 96], the inhibition at 0.5 µM is 90%.

In the case of `Cc1cn2nc([C@@H]3CCCCN3C(=O)C(NS(C)(=O)=O)c3ccccc3)cc2nc1N1CC[C@H](N)C1` (some centres unmarked) [Compound 101], the inhibition at 0.5 µM is 100%.

For `Cc1cn2nc([C@@H]3CCCCN3C(=O)[C@](C)(NS(C)(=O)=O)c3ccccc3)cc2nc1N1CC[C@H](N)C1` [Compound 27], the inhibition at 0.5 µM is 100%.

In the case of `CS(=O)(=O)Nc1ccc(Cl)cc1C(=O)N1CCCC[C@H]1c1cc2ccc(N3CCC3)nn2c1` [Compound 111], the inhibition at 0.5 µM is 56%.

With `CS(=O)(=O)Nc1ccc(Cl)cc1C(=O)N1CCCC[C@H]1c1cc2nc(N3CCCC3)cc(N3CCOCC3)n2n1` [Compound 90], the inhibition at 0.5 µM was 100%.

As for `CS(=O)(=O)Nc1ccc(Cl)cc1C(=O)N1CCCC[C@H]1c1cn2nc(N3CCC3)ccc2n1` [Compound 106], the inhibition at 0.5 µM was 100%.

Regarding `CN1CCN(c2cc(N3CC(N)C3)nc3cc([C@@H]4CCCCN4C(=O)c4cc(Cl)ccc4NS(C)(=O)=O)nn23)CC1` [Compound 53], the inhibition at 0.5 µM was 99%.

`CS(=O)(=O)Nc1ccc(Cl)cc1C(=O)N1CCCC[C@H]1c1cc2nc(C3CNC3)cc(N3CCOCC3)n2n1` [Compound 56]: the inhibition at 0.5 µM was 93%.

As to `Cc1cn2nc([C@@H]3CCCCN3C(=O)c3cc(Cl)ccc3CN=[N+]=[N-])cc2nc1N1CC[C@H](N)C1` [Compound 35], the inhibition at 0.5 µM is 100%.

As for `Cc1cn2nc([C@@H]3CCCCN3C(=O)c3ccccc3)cc2nc1N1CC[C@H](N)C1` [Compound 5], the inhibition at 0.5 µM was 100%.

As to `Cc1cn2nc([C@@H]3CCCCN3C(=O)C(NS(C)(=O)=O)c3ccccc3Br)cc2nc1N1C[C@@H](C#N)[C@@H](O)C1` (some centres unmarked) [Compound 23], the inhibition at 0.5 µM was 100%.

Consider `Cc1cn2nc([C@@H]3CCCCN3C(=O)C(NS(C)(=O)=O)c3ccccc3Cl)cc2nc1N1CC[C@H](N)C1` (some centres unmarked) [Compound 34], for which the inhibition at 0.5 µM is 100%.

For `Cc1cn2nc([C@@H]3CCCCN3C(=O)[C@@](C)(NS(C)(=O)=O)c3ccccc3)cc2nc1N1CC[C@H](N)C1` [Compound 28], the inhibition at 0.5 µM is 100%.

For `COc1ccc(Cl)cc1C(=O)N1CCCC[C@H]1c1cc2nc(N3CC[C@H](N)C3)c(C)cn2n1` [Compound 10], the inhibition at 0.5 µM was 100%.

For the molecule `Cc1cn2nc([C@@H]3CCCCN3C(=O)c3cc(Cl)ccc3NC(=O)c3ccccc3)cc2nc1N1CC[C@H](N)C1` [Compound 62], the inhibition at 0.5 µM was 100%.

Regarding `Cc1cn2nc([C@@H]3CCCCN3C(=O)c3cccc(C)c3O)cc2nc1N1CC[C@H](N)C1` [Compound 16], the inhibition at 0.5 µM is 100%.

For the molecule `Cc1cn2nc([C@@H]3CCCCN3C(=O)c3cc(Cl)ccc3NC(=O)C(F)F)cc2nc1N1CC[C@H](N)C1` [Compound 65], the inhibition at 0.5 µM was 100%.

As for `Cc1cc(C)n2nc(C3CCCCN3C(=O)c3cc(Cl)ccc3NS(C)(=O)=O)nc2n1` (centres unmarked) [Compound 113], the inhibition at 0.5 µM is 16%.

In the case of `CNc1c(C)c(C)nc2cc([C@@H]3CCCCN3C(=O)c3cc(Cl)cc(C)c3NS(C)(=O)=O)nn12` [Compound 25], the inhibition at 0.5 µM is 97%.

Turning to `Cc1ccc(N2CCCS2(=O)=O)c(C(=O)N2CCCC[C@H]2c2cc3nc(N4CC[C@H](N)C4)c(C)cn3n2)c1` [Compound 11], the inhibition at 0.5 µM is 100%.

On to `CS(=O)(=O)Nc1ccc(Cl)cc1C(=O)N1CCCC[C@H]1c1cc2nc(N3CCC3)cc(N3CCNC(C#N)C3)n2n1` (some centres unmarked) [Compound 43], for which the inhibition at 0.5 µM is 100%.

For `Cc1cc2nc([C@@H]3CCCCN3C(=O)C(NS(C)(=O)=O)c3ccccc3Br)cn2nc1N1CC[C@H](N)C1` (some centres unmarked) [Compound 116], the inhibition at 0.5 µM was 100%.

As for `CS(=O)(=O)Nc1ccc(Cl)cc1C(=O)N1CCCC[C@H]1c1cc2nc(C3CCCC3)cc(N3CCOCC3)n2n1` [Compound 57], the inhibition at 0.5 µM is 93%.

Take `Cc1ccc(Cl)cc1C(=O)N1CCCC[C@H]1c1cn2nc(N3CC[C@H](N)C3)ccc2n1` [Compound 121]: the inhibition at 0.5 µM is 100%.

On to `Cc1cn2nc([C@@H]3CCCCN3C(=O)C(NS(C)(=O)=O)c3ccccc3Br)cc2nc1N1CC[C@H](N)C1` (some centres unmarked) [Compound 33], for which the inhibition at 0.5 µM is 100%.

Turning to `Cc1cc(C2CC2)nc2cc([C@@H]3CCCCN3C(=O)c3cc(Cl)ccc3N)nn12` [Compound 77], the inhibition at 0.5 µM was 94%.

Consider `CS(=O)(=O)Nc1ccc(Cl)cc1C(=O)N1CCCC[C@H]1c1cc2nc(N3CC[C@@H](F)C3)cc(N3CCOCC3)n2n1` [Compound 93], for which the inhibition at 0.5 µM was 56%.

As for `Cc1ccc(NS(C)(=O)=O)c(C(=O)N2CCCC[C@H]2c2nc3c(C)cc(C)nc3[nH]2)c1` [Compound 112], the inhibition at 0.5 µM is 5%.

On to `Cc1ccc(C(=O)N2CCCC[C@H]2c2cc3nc(N4CC[C@H](N)C4)c(C)cn3n2)c(C)c1` [Compound 4], for which the inhibition at 0.5 µM is 100%.

Consider `Cc1nc2cc([C@@H]3CCCCN3C(=O)c3cc(F)ccc3NS(C)(=O)=O)nn2c(C)c1C` [Compound 58], for which the inhibition at 0.5 µM was 89%.

Consider `Cc1cn2nc([C@@H]3CCCCN3C(=O)c3cc(Cl)ccc3NS(C)(=O)=O)cc2nc1N1CCC12CNC2` [Compound 42], for which the inhibition at 0.5 µM was 100%.

With `CS(=O)(=O)Nc1ccc(Cl)cc1C(=O)N1CCCC[C@H]1c1cc2nc(N3CC[C@@H](N)C3)cc(N3CCOCC3)n2n1` [Compound 95], the inhibition at 0.5 µM is 99%.

With `Cc1ccc(NS(C)(=O)=O)c(C(=O)N2CCCC[C@H]2c2cc3nc(C)c(C)c(N4CCC4)n3n2)c1` [Compound 79], the inhibition at 0.5 µM was 100%.

For `Cc1cc(C2CC2)nc2cc([C@@H]3CCCCN3C(=O)c3cc(F)ccc3NS(C)(=O)=O)nn12` [Compound 75], the inhibition at 0.5 µM is 100%.

`Cc1ccc(NS(C)(=O)=O)c(C(=O)N2CCCC[C@H]2c2cc3nc(C)c(C)cn3n2)c1` [Compound 81]: the inhibition at 0.5 µM is 100%.

With `Cc1cn2nc([C@@H]3CCCCN3C(=O)c3cc(Cl)ccc3CN)cc2nc1N1CC[C@H](N)C1` [Compound 37], the inhibition at 0.5 µM was 100%.

Turning to `Cc1cc(NS(C)(=O)=O)c(C(=O)N2CCCC[C@H]2c2cn3nc(N4CC[C@H](N)C4)c(C)cc3n2)s1` [Compound 114], the inhibition at 0.5 µM was 100%.
